Laboratory results published in PubChem BioAssay AID463204 (Broad Institute, 2010).
Calls of active or inactive are those of the source.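 The calls were made as follows: active = AC50 no more than ten times the top concentration tested, that is within one log above it; inconclusive = flat curve fit with activity between 30% and 70%, or invalid poor fit; inactive = AC50 beyond ten times the top tested dose.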 Residues, ends and D or L forms follow the SMILES beside them.

Each compound was assayed on S. cerevisiae Mot1-301 ts growth rescue, BacTiter-Glo ATP luminescence (assay: growth rescue of Mot1-301 ts yeast, confirmation, SUMOylation pathway inhibitor project, whole organism, S. cerevisiae, Mot1-301 ts mutant, luminescence, dose retest (AID 463204);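 also: growth at restrictive 38.5 degrees C of Mot1-301 OY566 strain; actives raise luminescence by restoring growth of the ts mutant at high temperature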).

SMILES	AC50
Cc1nc(C)n(CC(=O)N2CCCC(C(=O)c3cccc4ccccc34)C2)n1 (centres undefined)	> 42 µM (inactive)
O=S(=O)(c1ccc(S(=O)(=O)N2CCCC2)cc1)N1CCCCC1	> 42 µM (inactive)
CCOC(=O)C1CCN(C(=O)c2ccc3c(c2)NC(=O)/C(=C/c2ccccc2)S3)CC1	> 42 µM (inactive)
COc1cccc(NC(=O)c2nn(C34CC5CC(CC(C5)C3)C4)cc2[N+](=O)[O-])c1	> 42 µM (inactive)
O=[N+]([O-])c1nn(-c2ccc(Cl)cc2)n(O)c1=NCc1ccccc1Cl	24 µM
COc1cccc(Cn2cnc3c(NS(=O)(=O)c4cccc(Cl)c4Cl)c(C)c(C)cc32)c1	> 110 µM (inactive)
Cc1cc(C)n(-c2nc3ccccc3nc2N2CCN(C(=O)c3ccccc3)CC2)n1	> 42 µM (inactive)
CCCN1C(=O)c2ccccc2NC1c1ccc(C)cc1 (centres undefined)	> 42 µM (inactive)
O=C(COc1ccccc1)Nc1ccc(OC(F)(F)C(F)F)c(NC(=O)COc2ccccc2)c1	> 42 µM (inactive)
CCN(CC(=O)NCc1ccc(Cl)cc1)C(=O)/C=C/c1ccc(C#N)cc1	> 42 µM (inactive)
Cc1ccc(-n2nnnc2C(Cl)(Cl)c2nnnn2-c2ccc(C)cc2)cc1	0.73 µM
C=CCn1cc(C(C)=O)c(=O)[nH]c1=O	> 42 µM (inactive)
COc1ccc2nc(SCC(=O)N(C)CC(=O)Nc3ccc(F)cc3)[nH]c2c1	> 42 µM (inactive)
COc1ccc(S(=O)(=O)N2CCCC2CNC(=O)C(=O)NCc2ccccn2)cc1 (centres undefined)	> 42 µM (inactive)
S=C(Nc1ccccc1Cl)N1CCOCC1	> 42 µM (inactive)
CC(=O)C(C(c1ccccc1)c1c[nH]c2ccccc12)[N+](=O)[O-] (centres undefined)	33 µM
COc1ccc(NC(=O)c2ccc(-n3cncn3)c([N+](=O)[O-])c2)cc1	> 21 µM (inactive)
CC(C)(CNC(=O)c1cccs1)CNC(=O)c1cccs1	> 42 µM (inactive)
CCCCC(=O)Nc1nnc(/C=C/c2ccc(OC)cc2)s1	> 42 µM (inactive)
Cc1cc(S(=O)(=O)N2CCCC(N3CCOCC3)C2)c(C)cc1Cl (centres undefined)	> 42 µM (inactive)
Cc1n[nH]c(=O)nc1NCc1ccc(Cl)cc1	> 42 µM (inactive)
O=C1CC(c2ccccc2)c2ccc(O)cc2O1 (centres undefined)	> 42 µM (inactive)
Oc1cccc2ccc(/C=C/c3ccccc3Br)nc12	> 42 µM (inactive)
Cc1cc(NC(=O)/C=C/c2ccco2)ccc1NC(=O)c1ccccc1	> 42 µM (inactive)
N#C/C(=C\c1cn(-c2ccccc2)nc1-c1cccnc1)c1nnc2n1CCCCC2	> 42 µM (inactive)

SMILES	AC50
CC(C)Oc1ccc(C2(C#N)CC[N+](C)(C)CC2)cc1	> 42 µM (inactive)
CC1=CC(=O)C=CC1(C)C(Cl)(Cl)Cl (centres undefined)	> 42 µM (inactive)
CS(=O)(=O)N1CCC(Oc2ccccc2C(=O)N2CCNC(=O)C2)CC1	> 42 µM (inactive)
COc1ccc(CN2CCCCCC2)cc1	> 42 µM (inactive)
CCOc1ccccc1N(C(=O)c1snc(C(N)=O)c1N)C(CC)C(=O)NC1CCCC1 (centres undefined)	41.7 µM
CC1CN(S(=O)(=O)c2cccc(C(=O)N=c3sccn3C)c2)CC(C)O1 (centres undefined)	> 42 µM (inactive)
O=C(NCc1cccnc1)Nc1ccccc1	> 42 µM (inactive)
CCCCc1n[nH]c(=S)n1Cc1ccc(C)cc1	> 42 µM (inactive)
CCOC(=O)C1(Cc2cccc(F)c2)CCN(C(=O)c2cnccn2)CC1	> 42 µM (inactive)
CN(C)c1ccc2nc3ccc(=[N+](C)C)cc-3sc2c1	> 42 µM (inactive)
COC(=O)c1cc(N=Nc2c(C)[nH]c3ccccc23)cc(C(=O)OC)c1	> 42 µM (inactive)
COC(=O)[C@H](Cc1ccccc1)NC(=O)NC(C)CCc1ccccc1 (some centres undefined)	> 42 µM (inactive)
COC(=O)CN1C(=O)c2cccc3cccc1c23	> 42 µM (inactive)
COC(=O)c1c(C)n(Cc2ccc3c(c2)OCO3)c2ccc(O)cc12	> 42 µM (inactive)
O=C(c1ccc([N+](=O)[O-])o1)N1CCN(c2nc3c(Cl)cccc3s2)CC1	6.55 µM
COc1ccc(Cn2nnnc2CN2CCN(c3ccc(OC)cc3)CC2)cc1	> 42 µM (inactive)
Cc1ccc(C)c(NC(=O)COC(=O)c2ccc3c(c2)OCO3)c1	> 42 µM (inactive)
N#CCCN(C(=O)COC(=O)c1ccc(S(=O)(=O)Nc2ccccc2)cc1)c1ccccc1	> 42 µM (inactive)
CCOc1ccc(/C=N/NS(=O)(=O)c2ccc(C)cc2)cc1OC	> 42 µM (inactive)
COc1ccc(CCN2CC(C(=O)N(C)CC(=O)Nc3cccc(F)c3)CC2=O)cc1OC (centres undefined)	> 42 µM (inactive)
CCC(CC)NC(=O)c1oc2ccccc2c1COc1ccccc1	> 42 µM (inactive)
CCOC(=O)c1cnc2ccc(Cl)cc2c1N1CCN(C)CC1	> 42 µM (inactive)
Cc1ccc(NC2CC(=O)N(c3ccc(N4CCCCC4)cc3)C2=O)cc1 (centres undefined)	> 21 µM (inactive)
CCc1nccn1S(=O)(=O)c1cc(OC)ccc1OC	> 42 µM (inactive)
O=C(c1ccc([N+](=O)[O-])cc1)N1CCN(c2ncc(Br)cn2)CC1	> 42 µM (inactive)

SMILES	AC50
O=S(=O)(c1cccc(-c2nnco2)c1)N1CCCC1	> 42 µM (inactive)
C/C(=N\NC(=S)Nc1ccccc1)C1Cc2ccccc2C(=O)O1 (centres undefined)	> 42 µM (inactive)
O=C(Cc1ccccc1)N1CCCC1c1ccccc1 (centres undefined)	> 42 µM (inactive)
O=C(/C(=N\Nc1ccc(Br)cc1)Sc1nnnn1-c1ccccc1)c1ccccc1	> 42 µM (inactive)
O=C(Cn1cnc2ccccc2c1=O)c1ccc(OC(F)F)cc1	> 42 µM (inactive)
NC1=NC(=Nc2ccc(S(N)(=O)=O)cc2)c2ccccc21	> 21 µM (inactive)
CCCCN(C)C(=O)c1cc2c(Cl)nc3ccccc3c2s1	> 42 µM (inactive)
Cc1cc(C)c2c(=O)[nH]cnc2n1	> 42 µM (inactive)
CCN1CCCC1CN(Cc1cc2ccc(C)cc2[nH]c1=O)C(=S)Nc1ccc(OC)cc1OC (centres undefined)	> 42 µM (inactive)
O=C(COC(=O)COc1ccccc1Cl)Nc1ccccc1OC(F)F	> 42 µM (inactive)
Cc1ccc(SCCNC(=O)CN2C(=O)c3ccccc3S2(=O)=O)cc1	> 42 µM (inactive)
CCOc1ccc(NC(=O)CSc2nnc(Cc3csc(C)n3)o2)cc1	> 42 µM (inactive)
CC(C)CCn1c(=O)c2ccccc2c2ccccc2c1=O	> 42 µM (inactive)
O=C(O)C1C2CCCCC2=C2CCCCC2C1C(=O)c1ccccc1 (centres undefined)	3.26 µM
COCC(C)n1c(-c2ccc3c(c2)NC(=O)CO3)csc1=Nc1ccc(OC(F)F)cc1 (centres undefined)	25.2 µM
CN(C=O)CP(=O)(O)CN(C)C=O	> 42 µM (inactive)
Cc1noc(C)c1Cc1ccc(O)cc1	> 42 µM (inactive)
NNc1nc2sc3c(c2c(=O)n1-c1ccccc1)CCCC3	> 42 µM (inactive)
Cn1c(=O)c2c(nc(N/N=C/c3ccc(OC(=O)c4ccco4)cc3)n2Cc2ccccc2Cl)n(C)c1=O	> 42 µM (inactive)
COc1ccc(NC(=O)C2CCN(c3cc(C)nc(-c4ccccc4)n3)CC2)cc1	> 42 µM (inactive)
O=C(Nc1ccc([N+](=O)[O-])cn1)C1CC1	> 42 µM (inactive)
CC(C)[N+]1(C)[C@@H]2CC[C@@H]1CC(OC(=O)C(CO)c1ccccc1)C2 (some centres undefined)	> 42 µM (inactive)
COCC(=O)n1nc(-c2ccccc2)nc1NCc1ccc(N(C)C)cc1	> 42 µM (inactive)
CCN1C(=NCCCCO)N[C@@H](c2cccc(C(F)(F)F)c2)C(C(=O)OC)=C1C	> 42 µM (inactive)
Cc1cc(=O)oc(C)c1C(=O)Nc1ccc(Cl)cn1	> 42 µM (inactive)

SMILES	AC50
COC(=O)[C@@]12CCCCN1[C@H](c1ccc(-c3ccc(C(C)=O)cc3)cc1)[C@@H]1C(=O)N(C)C(=O)[C@@H]12	> 42 µM (inactive)
CC(=O)NC(CC(C)C)C(=O)NC(CO)C(=O)NC(CCC(=O)O)C(=O)NC(C)C(=O)NC(CC(C)C)C(N)=O (centres undefined) (Ac-LSEAL-NH2; configuration not given here)	> 42 µM (inactive)
COC(=O)c1sc2ccccc2c1NC(=O)c1ccc(S(=O)(=O)N2CCCC(C)C2)cc1 (centres undefined)	> 42 µM (inactive)
COc1ccc(OC)c(NC(=O)CN(C)S(=O)(=O)c2ccc(Cl)cc2)c1	> 42 µM (inactive)
O=C(CCS(=O)(=O)c1ccc(Br)s1)NCc1ccccc1	> 42 µM (inactive)
O=S(=O)(NCCN1CCCC1)c1cccc2cccnc12	> 42 µM (inactive)
Cc1c(C(=O)Nc2cccc(F)c2)cnn1-c1ccccc1	> 42 µM (inactive)
COC(=O)c1cccc(NC(=O)CN(c2ccc3c(c2)OCO3)S(C)(=O)=O)c1C	> 42 µM (inactive)
CCCOc1ccc(C(=O)NCc2ccco2)cc1	> 42 µM (inactive)
Clc1ccccc1C(c1ccccc1)(c1ccccc1)n1ccnc1	3.47 µM
COC(=O)C1CN(C(=O)C(C)Oc2ccc(F)cc2)c2ccccc2O1 (centres undefined)	> 42 µM (inactive)
Cc1cnc(C(=O)OCC(=O)Nc2ccc(C)c(S(=O)(=O)N(C)C)c2)cn1	> 42 µM (inactive)
CCOc1ccccc1N(CC(=O)Nc1ccccc1C(=O)N1CCCC1)S(C)(=O)=O	> 42 µM (inactive)
Cc1cc(N2CCN(C)CC2)nc2ccc(NC(=S)N3CCC4(CC3)OCCO4)cc12	> 42 µM (inactive)
CN(Cc1ccccc1)c1ccc(S(=O)(=O)N2CCC(C(=O)O)CC2)cc1[N+](=O)[O-]	> 42 µM (inactive)
CCCC(=O)NC(C)c1nc2ccccc2[nH]1 (centres undefined)	> 42 µM (inactive)
N/C(Cn1cncn1)=N\NC(=O)c1ccc(Cl)cc1Cl	> 42 µM (inactive)
CCN(CC)c1ccc(/C=N/NC(=O)OC(C)(C)C)cc1	> 42 µM (inactive)
CCNc1ccc(S(=O)(=O)N(C)C)cc1NCC(=O)Nc1ccccc1Br	> 42 µM (inactive)
COCc1[nH][nH]c(=O)c1C=Nc1ccc(OC(F)(F)F)cc1	> 42 µM (inactive)
Cc1cccc(N/N=C/c2c(O)[nH]c(=S)[nH]c2=O)c1	> 42 µM (inactive)
N#Cc1ccc(Oc2ccc(S(=O)(=O)N3CCCCC3)cn2)cc1	> 42 µM (inactive)
Cc1ccc(-c2noc(C3CCCN(S(=O)(=O)c4ccc5ccccc5c4)C3)n2)o1 (centres undefined)	> 42 µM (inactive)
COC(=O)c1ccccc1NC(=O)c1cnn2c(C)cc(C)nc12	> 42 µM (inactive)
